{
  "source": "patent US9682995B2",
  "about": "“Amino-substituted isothiazoles” (BAYER PHARMA AKTIENGESELLSCHAFT, priority 2013, dated 2017)",
  "assay_in_all_cases": "Kinase Profiling (KINOMEscan)",
  "assay_type_in_all_cases": "binding",
  "key": {"[1]": {"target": "456 kinases (of these 395 non-mutant kinases) (Homo sapiens, UniProt P46734)", "details": "MEK3; 10 μM"}, "[2]": {"target": "456 kinases (of these 395 non-mutant kinases) (Homo sapiens, UniProt O15264)", "details": "p38-delta; 10 μM"}, "[3]": {"target": "456 kinases (of these 395 non-mutant kinases) (Homo sapiens, UniProt Q13523)", "details": "PRP4; 10 μM"}, "[4]": {"target": "456 kinases (of these 395 non-mutant kinases) (Homo sapiens, UniProt Q9C098)", "details": "DCAMKL3; 10 μM"}, "[5]": {"target": "456 kinases (of these 395 non-mutant kinases) (Homo sapiens, UniProt Q9P286)", "details": "PAK7; 10 μM"}, "[6]": {"target": "456 kinases (of these 395 non-mutant kinases) (Homo sapiens, UniProt O94768)", "details": "DRAK2; 10 μM"}, "[7]": {"target": "456 kinases (of these 395 non-mutant kinases) (Homo sapiens, UniProt P48730)", "details": "CSNK1D; 10 μM"}, "[8]": {"target": "456 kinases (of these 395 non-mutant kinases) (Homo sapiens, UniProt P42345)", "details": "MTOR; 10 μM"}, "[9]": {"target": "456 kinases (of these 395 non-mutant kinases) (Homo sapiens, UniProt Q13177)", "sequence (Q13177 2-524 limits assumed, change not shown)": "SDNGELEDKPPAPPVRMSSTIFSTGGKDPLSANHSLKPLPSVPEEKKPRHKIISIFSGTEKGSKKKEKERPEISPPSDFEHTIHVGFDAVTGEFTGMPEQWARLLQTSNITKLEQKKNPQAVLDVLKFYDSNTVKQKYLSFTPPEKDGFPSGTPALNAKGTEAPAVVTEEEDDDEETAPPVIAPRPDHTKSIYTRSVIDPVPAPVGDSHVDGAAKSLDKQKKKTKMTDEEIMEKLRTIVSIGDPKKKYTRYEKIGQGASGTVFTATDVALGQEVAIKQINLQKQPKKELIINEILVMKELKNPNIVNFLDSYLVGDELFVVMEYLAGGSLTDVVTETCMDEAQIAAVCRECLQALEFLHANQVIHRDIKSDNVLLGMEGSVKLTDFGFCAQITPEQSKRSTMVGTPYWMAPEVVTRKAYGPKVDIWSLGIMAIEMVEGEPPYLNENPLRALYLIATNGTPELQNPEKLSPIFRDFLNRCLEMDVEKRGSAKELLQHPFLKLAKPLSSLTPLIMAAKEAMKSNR", "details": "PAK2; 10 μM"}, "[10]": {"target": "456 kinases (of these 395 non-mutant kinases) (Homo sapiens, UniProt O95747)", "sequence (O95747 2-527 limits assumed, change not shown)": "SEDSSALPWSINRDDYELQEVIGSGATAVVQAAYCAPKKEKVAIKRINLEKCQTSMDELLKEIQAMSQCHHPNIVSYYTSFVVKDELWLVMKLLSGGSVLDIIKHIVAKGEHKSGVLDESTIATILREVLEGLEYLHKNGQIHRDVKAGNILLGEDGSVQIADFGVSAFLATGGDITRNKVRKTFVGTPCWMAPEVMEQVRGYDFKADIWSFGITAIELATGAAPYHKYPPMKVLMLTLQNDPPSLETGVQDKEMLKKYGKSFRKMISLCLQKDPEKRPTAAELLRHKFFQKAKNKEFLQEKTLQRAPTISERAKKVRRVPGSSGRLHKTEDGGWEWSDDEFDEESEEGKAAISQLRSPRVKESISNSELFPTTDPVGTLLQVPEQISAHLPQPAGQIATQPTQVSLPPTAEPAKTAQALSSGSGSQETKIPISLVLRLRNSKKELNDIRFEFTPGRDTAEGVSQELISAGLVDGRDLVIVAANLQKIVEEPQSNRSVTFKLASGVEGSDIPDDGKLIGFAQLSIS", "details": "OSR1; 10 μM"}, "[11]": {"target": "456 kinases (of these 395 non-mutant kinases) (Homo sapiens, UniProt Q07002)", "details": "PCTK3; 10 μM"}, "[12]": {"target": "456 kinases (of these 395 non-mutant kinases) (Homo sapiens, UniProt O75385)", "details": "ULK1; 10 μM"}, "[13]": {"target": "456 kinases (of these 395 non-mutant kinases) (Homo sapiens, UniProt O14757)", "details": "CHEK1; 10 μM"}, "[14]": {"target": "456 kinases (of these 395 non-mutant kinases) (Homo sapiens, UniProt P12931)", "sequence (P12931 2-536 limits assumed, change not shown)": "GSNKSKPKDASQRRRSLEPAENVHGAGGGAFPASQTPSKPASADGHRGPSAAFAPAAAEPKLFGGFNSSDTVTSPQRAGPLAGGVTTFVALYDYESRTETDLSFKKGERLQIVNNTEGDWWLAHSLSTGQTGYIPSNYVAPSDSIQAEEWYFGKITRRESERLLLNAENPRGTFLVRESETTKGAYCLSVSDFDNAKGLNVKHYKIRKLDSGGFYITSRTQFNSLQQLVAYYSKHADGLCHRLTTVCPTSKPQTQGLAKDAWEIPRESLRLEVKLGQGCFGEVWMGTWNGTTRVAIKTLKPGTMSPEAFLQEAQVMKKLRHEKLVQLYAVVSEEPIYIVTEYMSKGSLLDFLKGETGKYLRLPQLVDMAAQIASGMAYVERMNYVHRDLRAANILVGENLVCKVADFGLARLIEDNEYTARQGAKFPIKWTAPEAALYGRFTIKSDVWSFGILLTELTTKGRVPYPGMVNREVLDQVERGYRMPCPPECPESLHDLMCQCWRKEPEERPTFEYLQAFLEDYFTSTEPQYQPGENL", "details": "SRC; 10 μM"}, "[15]": {"target": "456 kinases (of these 395 non-mutant kinases) (Homo sapiens, UniProt P10721, V559D/V654A)", "sequence (P10721 26-976 V559D/V654A limits assumed)": "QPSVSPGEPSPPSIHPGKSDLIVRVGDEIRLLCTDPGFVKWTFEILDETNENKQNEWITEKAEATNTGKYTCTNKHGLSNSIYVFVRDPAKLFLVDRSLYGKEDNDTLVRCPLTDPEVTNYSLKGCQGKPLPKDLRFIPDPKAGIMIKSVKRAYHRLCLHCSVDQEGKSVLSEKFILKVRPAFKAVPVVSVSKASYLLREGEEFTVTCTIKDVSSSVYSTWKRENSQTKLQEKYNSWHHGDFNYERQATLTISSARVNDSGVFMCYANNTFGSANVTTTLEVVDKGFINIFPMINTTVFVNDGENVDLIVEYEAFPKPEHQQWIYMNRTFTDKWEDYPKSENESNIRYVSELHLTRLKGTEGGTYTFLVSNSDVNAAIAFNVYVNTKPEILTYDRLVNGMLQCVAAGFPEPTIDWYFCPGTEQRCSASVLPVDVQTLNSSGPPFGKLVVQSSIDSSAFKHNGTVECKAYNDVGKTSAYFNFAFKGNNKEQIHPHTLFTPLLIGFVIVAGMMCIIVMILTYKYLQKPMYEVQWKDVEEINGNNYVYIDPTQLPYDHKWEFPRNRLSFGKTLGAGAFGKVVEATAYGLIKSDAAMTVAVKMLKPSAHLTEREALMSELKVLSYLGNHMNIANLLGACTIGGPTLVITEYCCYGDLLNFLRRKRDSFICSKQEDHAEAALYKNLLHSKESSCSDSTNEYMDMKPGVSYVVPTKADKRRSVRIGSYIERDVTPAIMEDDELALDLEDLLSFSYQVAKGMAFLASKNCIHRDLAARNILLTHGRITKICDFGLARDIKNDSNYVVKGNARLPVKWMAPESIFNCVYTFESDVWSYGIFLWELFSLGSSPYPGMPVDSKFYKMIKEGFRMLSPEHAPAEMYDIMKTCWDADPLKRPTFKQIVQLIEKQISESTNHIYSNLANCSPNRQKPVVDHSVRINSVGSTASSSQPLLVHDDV", "details": "KIT(V559D,V654A); 10 μM"}, "[16]": {"target": "456 kinases (of these 395 non-mutant kinases) (Homo sapiens, UniProt P0C1S8)", "details": "WEE2; 10 μM"}, "[17]": {"target": "456 kinases (of these 395 non-mutant kinases) (Homo sapiens, UniProt Q8IVW4)", "details": "CDKL3; 10 μM"}, "[18]": {"target": "456 kinases (of these 395 non-mutant kinases) (Homo sapiens, UniProt Q13153)", "details": "PAK1; 10 μM"}, "[19]": {"target": "456 kinases (of these 395 non-mutant kinases) (Homo sapiens, UniProt Q7KZI7)", "details": "MARK2; 10 μM"}, "[20]": {"target": "456 kinases (of these 395 non-mutant kinases) (Homo sapiens, UniProt P27448)", "details": "MARK3; 10 μM"}, "[21]": {"target": "456 kinases (of these 395 non-mutant kinases) (Homo sapiens, UniProt Q13976)", "sequence (Q13976 2-671 limits assumed, change not shown)": "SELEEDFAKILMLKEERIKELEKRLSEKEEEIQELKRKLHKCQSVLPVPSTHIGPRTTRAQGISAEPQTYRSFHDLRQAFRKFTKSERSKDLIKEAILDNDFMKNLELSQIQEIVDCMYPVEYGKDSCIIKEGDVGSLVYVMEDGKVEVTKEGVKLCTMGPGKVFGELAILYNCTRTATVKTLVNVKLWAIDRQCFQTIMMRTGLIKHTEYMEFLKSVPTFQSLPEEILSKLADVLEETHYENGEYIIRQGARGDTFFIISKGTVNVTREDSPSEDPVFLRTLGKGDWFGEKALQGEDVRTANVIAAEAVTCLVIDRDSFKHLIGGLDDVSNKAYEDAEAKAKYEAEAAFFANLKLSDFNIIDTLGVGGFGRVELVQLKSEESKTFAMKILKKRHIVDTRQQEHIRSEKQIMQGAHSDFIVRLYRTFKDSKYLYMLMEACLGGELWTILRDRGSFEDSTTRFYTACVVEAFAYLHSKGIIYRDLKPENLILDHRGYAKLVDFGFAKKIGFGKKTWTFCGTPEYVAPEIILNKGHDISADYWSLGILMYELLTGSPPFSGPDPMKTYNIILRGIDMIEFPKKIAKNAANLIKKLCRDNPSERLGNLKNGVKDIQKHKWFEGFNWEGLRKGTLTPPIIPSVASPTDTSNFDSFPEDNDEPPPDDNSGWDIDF", "details": "PRKG1; 10 μM"}, "[22]": {"target": "456 kinases (of these 395 non-mutant kinases) (Homo sapiens, UniProt Q13188)", "details": "MST2; 10 μM"}, "[23]": {"target": "456 kinases (of these 395 non-mutant kinases) (Homo sapiens, UniProt Q56UN5)", "details": "YSK4; 10 μM"}, "[24]": {"target": "456 kinases (of these 395 non-mutant kinases) (Homo sapiens, UniProt Q14289)", "details": "PYK2; 10 μM"}, "[25]": {"target": "456 kinases (of these 395 non-mutant kinases) (Homo sapiens, UniProt P41743)", "sequence (P41743 2-596 limits assumed, change not shown)": "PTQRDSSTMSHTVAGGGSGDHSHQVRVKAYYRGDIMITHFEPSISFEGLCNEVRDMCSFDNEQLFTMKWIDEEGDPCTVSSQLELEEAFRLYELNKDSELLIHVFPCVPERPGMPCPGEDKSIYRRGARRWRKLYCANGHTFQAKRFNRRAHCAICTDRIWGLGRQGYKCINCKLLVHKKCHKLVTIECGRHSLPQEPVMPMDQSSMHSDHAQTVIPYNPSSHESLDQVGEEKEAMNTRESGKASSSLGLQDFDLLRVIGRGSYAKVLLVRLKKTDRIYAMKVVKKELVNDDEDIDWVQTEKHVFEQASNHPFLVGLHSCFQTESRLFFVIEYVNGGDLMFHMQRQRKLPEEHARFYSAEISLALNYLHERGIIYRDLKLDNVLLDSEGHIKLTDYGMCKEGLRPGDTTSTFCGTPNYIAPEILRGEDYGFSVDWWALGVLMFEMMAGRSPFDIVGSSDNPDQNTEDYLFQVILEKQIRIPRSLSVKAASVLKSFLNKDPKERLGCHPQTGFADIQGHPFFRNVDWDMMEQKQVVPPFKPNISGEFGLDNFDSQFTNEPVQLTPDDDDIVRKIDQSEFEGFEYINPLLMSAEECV", "details": "PRKCI; 10 μM"}, "[26]": {"target": "456 kinases (of these 395 non-mutant kinases) (Homo sapiens, UniProt Q9NQU5)", "details": "PAK6; 10 μM"}, "[27]": {"target": "456 kinases (of these 395 non-mutant kinases) (Homo sapiens, UniProt P07948)", "sequence (P07948 2-512 limits assumed, change not shown)": "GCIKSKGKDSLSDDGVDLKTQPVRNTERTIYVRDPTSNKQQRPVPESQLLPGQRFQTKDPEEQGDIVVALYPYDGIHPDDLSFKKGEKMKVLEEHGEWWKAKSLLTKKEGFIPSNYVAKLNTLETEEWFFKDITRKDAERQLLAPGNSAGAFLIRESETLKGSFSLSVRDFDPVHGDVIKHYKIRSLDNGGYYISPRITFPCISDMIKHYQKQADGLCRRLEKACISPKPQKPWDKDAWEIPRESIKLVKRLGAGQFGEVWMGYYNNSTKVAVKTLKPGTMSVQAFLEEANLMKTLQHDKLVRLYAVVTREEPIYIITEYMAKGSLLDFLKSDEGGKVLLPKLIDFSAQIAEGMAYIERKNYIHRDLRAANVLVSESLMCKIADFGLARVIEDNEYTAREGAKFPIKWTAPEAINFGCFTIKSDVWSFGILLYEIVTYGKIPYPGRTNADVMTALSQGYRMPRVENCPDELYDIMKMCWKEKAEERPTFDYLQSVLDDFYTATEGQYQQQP", "details": "LYN; 10 μM"}, "[28]": {"target": "456 kinases (of these 395 non-mutant kinases) (Homo sapiens, UniProt Q8TBX8)", "sequence (Q8TBX8 2-421 limits assumed, change not shown)": "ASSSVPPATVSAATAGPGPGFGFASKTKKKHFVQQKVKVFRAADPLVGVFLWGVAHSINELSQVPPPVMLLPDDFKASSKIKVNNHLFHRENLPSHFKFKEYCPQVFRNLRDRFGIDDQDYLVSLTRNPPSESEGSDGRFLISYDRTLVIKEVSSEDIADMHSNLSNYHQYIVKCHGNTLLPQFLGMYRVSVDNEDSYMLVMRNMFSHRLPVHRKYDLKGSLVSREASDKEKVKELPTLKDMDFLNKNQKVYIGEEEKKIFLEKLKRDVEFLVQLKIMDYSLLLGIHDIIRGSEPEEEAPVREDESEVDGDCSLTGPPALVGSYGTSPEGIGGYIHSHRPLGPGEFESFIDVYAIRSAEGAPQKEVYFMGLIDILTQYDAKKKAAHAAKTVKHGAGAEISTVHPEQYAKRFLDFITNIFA", "details": "PIP5K2C; 10 μM"}, "[29]": {"target": "456 kinases (of these 395 non-mutant kinases) (Homo sapiens, UniProt P0C264)", "details": "SgK110; 10 μM"}, "[30]": {"target": "456 kinases (of these 395 non-mutant kinases) (Homo sapiens, UniProt Q04759)", "details": "PRKCQ; 10 μM"}, "[31]": {"target": "456 kinases (of these 395 non-mutant kinases) (Homo sapiens, UniProt Q12866)", "details": "MERTK; 10 μM"}, "[32]": {"target": "456 kinases (of these 395 non-mutant kinases) (Homo sapiens, UniProt P42336, M1043I)", "details": "PIK3CA(M1043I); 10 μM"}},
  "data": [
    {"smiles": "CCc1ccccc1NC(=O)c1c(C)nsc1Nc1cnc2cc(F)ccc2n1", "note": "[Example 20, N-(2-Ethylphenyl)-5-[(6-fluoroquinoxalin-2-yl)amino]-3-methyl-1,2-thiazole-4-carboxamide]", "values": [
      {"measurement": "% Ctrl @ 10 μM", "setting": "[1]", "value": 100, "unit": "% Ctrl"},
      {"measurement": "% Ctrl @ 10 μM", "setting": "[2]", "value": 100, "unit": "% Ctrl"},
      {"measurement": "% Ctrl @ 10 μM", "setting": "[3]", "value": 87, "unit": "% Ctrl"},
      {"measurement": "% Ctrl @ 10 μM", "setting": "[4]", "value": 100, "unit": "% Ctrl"},
      {"measurement": "% Ctrl @ 10 μM", "setting": "[5]", "value": 94, "unit": "% Ctrl"},
      {"measurement": "% Ctrl @ 10 μM", "setting": "[6]", "value": 93, "unit": "% Ctrl"},
      {"measurement": "% Ctrl @ 10 μM", "setting": "[7]", "value": 86, "unit": "% Ctrl"},
      {"measurement": "% Ctrl @ 10 μM", "setting": "[8]", "value": 100, "unit": "% Ctrl"},
      {"measurement": "% Ctrl @ 10 μM", "setting": "[9]", "value": 100, "unit": "% Ctrl"},
      {"measurement": "% Ctrl @ 10 μM", "setting": "[10]", "value": 97, "unit": "% Ctrl"},
      {"measurement": "% Ctrl @ 10 μM", "setting": "[11]", "value": 82, "unit": "% Ctrl"},
      {"measurement": "% Ctrl @ 10 μM", "setting": "[12]", "value": 100, "unit": "% Ctrl"},
      {"measurement": "% Ctrl @ 10 μM", "setting": "[13]", "value": 73, "unit": "% Ctrl"},
      {"measurement": "% Ctrl @ 10 μM", "setting": "[14]", "value": 100, "unit": "% Ctrl"},
      {"measurement": "% Ctrl @ 10 μM", "setting": "[15]", "value": 96, "unit": "% Ctrl"},
      {"measurement": "% Ctrl @ 10 μM", "setting": "[16]", "value": 100, "unit": "% Ctrl"},
      {"measurement": "% Ctrl @ 10 μM", "setting": "[17]", "value": 66, "unit": "% Ctrl"},
      {"measurement": "% Ctrl @ 10 μM", "setting": "[18]", "value": 100, "unit": "% Ctrl"},
      {"measurement": "% Ctrl @ 10 μM", "setting": "[19]", "value": 83, "unit": "% Ctrl"},
      {"measurement": "% Ctrl @ 10 μM", "setting": "[20]", "value": 93, "unit": "% Ctrl"},
      {"measurement": "% Ctrl @ 10 μM", "setting": "[21]", "value": 90, "unit": "% Ctrl"},
      {"measurement": "% Ctrl @ 10 μM", "setting": "[22]", "value": 100, "unit": "% Ctrl"},
      {"measurement": "% Ctrl @ 10 μM", "setting": "[23]", "value": 100, "unit": "% Ctrl"},
      {"measurement": "% Ctrl @ 10 μM", "setting": "[24]", "value": 100, "unit": "% Ctrl"},
      {"measurement": "% Ctrl @ 10 μM", "setting": "[25]", "value": 100, "unit": "% Ctrl"},
      {"measurement": "% Ctrl @ 10 μM", "setting": "[26]", "value": 100, "unit": "% Ctrl"},
      {"measurement": "% Ctrl @ 10 μM", "setting": "[27]", "value": 76, "unit": "% Ctrl"},
      {"measurement": "% Ctrl @ 10 μM", "setting": "[28]", "value": 100, "unit": "% Ctrl"},
      {"measurement": "% Ctrl @ 10 μM", "setting": "[29]", "value": 100, "unit": "% Ctrl"},
      {"measurement": "% Ctrl @ 10 μM", "setting": "[30]", "value": 76, "unit": "% Ctrl"},
      {"measurement": "% Ctrl @ 10 μM", "setting": "[31]", "value": 98, "unit": "% Ctrl"},
      {"measurement": "% Ctrl @ 10 μM", "setting": "[32]", "value": 76, "unit": "% Ctrl"}
    ]}
  ]
}
